According to the supplement of paper PMC13207355:

Experiments:
Conditions in all cases: exposure time: 72 h
E13 [1] = patient-derived glioblastoma stem cells of classical subtype; assay: surviving fraction (nuclei count normalised to DMSO); higher = more cells surviving (less toxic)
E21 [2] = patient-derived glioblastoma stem cells of mesenchymal subtype; assay: as above
E28 [3] = patient-derived glioblastoma stem cells of classical subtype; assay: as above
E31 [4] = patient-derived glioblastoma stem cells of proneural subtype; assay: as above
E34 [5] = patient-derived glioblastoma stem cells of proneural subtype; assay: as above
E57 [6] = patient-derived glioblastoma stem cells of mesenchymal subtype; assay: as above
FT3469 [7] = normal neural stem cell line; assay: as above
E13 [8] = assay: phenotypic distance (Euclidean, principal components) from DMSO controls (arbitrary units); higher = stronger morphological change
E21 [9] = assay: as above
E28 [10] = assay: as above
E31 [11] = assay: as above
E34 [12] = assay: as above
E57 [13] = assay: as above
FT3469 [14] = assay: as above
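For phenotypic distance (Euclidean, principal components) from DMSO controls in this document: cell Painting imaging in 384-well plates, CellProfiler features reduced to at least 20 principal components, Euclidean distance versus same-plate DMSO vehicle wells (0.1% v/v), median over six images per well.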
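For surviving fraction (nuclei count normalised to DMSO) in this document: nuclei counted by high-content imaging of Hoechst-stained cells in laminin-coated 384-well plates, relative to 0.1% DMSO vehicle wells, with staurosporine as cell-death control.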

COc1cc2c(c(OC)c1OC)-c1ccc(OC)c(=O)cc1[C@@H](NC(C)=O)CC2 [Colchicine]
Conditions | phenotypic distance | surviving fraction
E13 [1], 4.1 nM | – | 0.247
E13 [1], 12.3 nM | – | 0.187
E13 [1], 37 nM | – | 0.165
E13 [1], 111.1 nM | – | 0.14
E13 [1], 333.3 nM | – | 0.151
E13 [1], 1000 nM | – | 0.152
E13 [1], 3000 nM | – | 0.178
E13 [8], 4.1 nM | 5.49 | –
E13 [8], 12.3 nM | 5.12 | –
E13 [8], 37 nM | 6.59 | –
E13 [8], 111.1 nM | 7.17 | –
E13 [8], 333.3 nM | 8.24 | –
E13 [8], 1000 nM | 7.42 | –
E13 [8], 3000 nM | 7.88 | –
E21 [2], 4.1 nM | – | 0.171
E21 [2], 12.3 nM | – | 0.125
E21 [2], 37 nM | – | 0.133
E21 [2], 111.1 nM | – | 0.137
E21 [2], 333.3 nM | – | 0.136
E21 [2], 1000 nM | – | 0.135
E21 [2], 3000 nM | – | 0.139
E21 [9], 4.1 nM | 5.8 | –
E21 [9], 12.3 nM | 5.88 | –
E21 [9], 37 nM | 5.7 | –
E21 [9], 111.1 nM | 5.45 | –
E21 [9], 333.3 nM | 5.2 | –
E21 [9], 1000 nM | 5.35 | –
E21 [9], 3000 nM | 4.96 | –
E28 [3], 4.1 nM | – | 0.546
E28 [3], 12.3 nM | – | 0.244
E28 [3], 37 nM | – | 0.335
E28 [3], 111.1 nM | – | 0.295
E28 [3], 333.3 nM | – | 0.291
E28 [3], 1000 nM | – | 0.211
E28 [3], 3000 nM | – | 0.207
E28 [10], 4.1 nM | 2.89 | –
E28 [10], 12.3 nM | 3.81 | –
E28 [10], 37 nM | 4.44 | –
E28 [10], 111.1 nM | 4.55 | –
E28 [10], 333.3 nM | 5.48 | –
E28 [10], 1000 nM | 4.51 | –
E28 [10], 3000 nM | 5.17 | –
E31 [4], 4.1 nM | – | 0.131
E31 [4], 12.3 nM | – | 0.0944
E31 [4], 37 nM | – | 0.0551
E31 [4], 111.1 nM | – | 0.0362
E31 [4], 333.3 nM | – | 0.0614
E31 [4], 1000 nM | – | 0.0519
E31 [4], 3000 nM | – | 0.0425
E31 [11], 4.1 nM | 4.44 | –
E31 [11], 12.3 nM | 6.48 | –
E31 [11], 37 nM | 9.95 | –
E31 [11], 111.1 nM | 12.2 | –
E31 [11], 333.3 nM | 11.7 | –
E31 [11], 1000 nM | 10.4 | –
E31 [11], 3000 nM | 12.5 | –
E34 [5], 4.1 nM | – | 0.406
E34 [5], 12.3 nM | – | 0.368
E34 [5], 37 nM | – | 0.389
E34 [5], 111.1 nM | – | 0.284
E34 [5], 333.3 nM | – | 0.318
E34 [5], 1000 nM | – | 0.245
E34 [5], 3000 nM | – | 0.267
E34 [12], 4.1 nM | 3.32 | –
E34 [12], 12.3 nM | 7.33 | –
E34 [12], 37 nM | 9.15 | –
E34 [12], 111.1 nM | 9.46 | –
E34 [12], 333.3 nM | 7.78 | –
E34 [12], 1000 nM | 7.61 | –
E34 [12], 3000 nM | 10.5 | –
E57 [6], 4.1 nM | – | 0.21
E57 [6], 12.3 nM | – | 0.0932
E57 [6], 37 nM | – | 0.105
E57 [6], 111.1 nM | – | 0.119
E57 [6], 333.3 nM | – | 0.0902
E57 [6], 1000 nM | – | 0.0976
E57 [6], 3000 nM | – | 0.0829
E57 [13], 4.1 nM | 4.26 | –
E57 [13], 12.3 nM | 4.49 | –
E57 [13], 37 nM | 4.46 | –
E57 [13], 111.1 nM | 4.55 | –
E57 [13], 333.3 nM | 4.46 | –
E57 [13], 1000 nM | 4.61 | –
E57 [13], 3000 nM | 5.19 | –
FT3469 [7], 4.1 nM | – | 0.487
FT3469 [7], 12.3 nM | – | 0.468
FT3469 [7], 37 nM | – | 0.367
FT3469 [7], 111.1 nM | – | 0.301
FT3469 [7], 333.3 nM | – | 0.263
FT3469 [7], 1000 nM | – | 0.335
FT3469 [7], 3000 nM | – | 0.229
FT3469 [14], 4.1 nM | 3.51 | –
FT3469 [14], 12.3 nM | 4.18 | –
FT3469 [14], 37 nM | 5.37 | –
FT3469 [14], 111.1 nM | 5.29 | –
FT3469 [14], 333.3 nM | 4.34 | –
FT3469 [14], 1000 nM | 5.12 | –
FT3469 [14], 3000 nM | 4.51 | –

Clc1ccc(C(Cn2ccnc2)OCc2ccsc2Cl)c(Cl)c1 (stereo unspecified) [Tioconazole]
Conditions | phenotypic distance | surviving fraction
E13 [1], 4.1 nM | – | 0.996
E13 [1], 12.3 nM | – | 0.959
E13 [1], 37 nM | – | 1.02
E13 [1], 111.1 nM | – | 0.98
E13 [1], 333.3 nM | – | 0.992
E13 [1], 1000 nM | – | 1.01
E13 [1], 3000 nM | – | 0.857
E13 [8], 4.1 nM | 0.434 | –
E13 [8], 12.3 nM | 0.591 | –
E13 [8], 37 nM | 0.952 | –
E13 [8], 111.1 nM | 0.719 | –
E13 [8], 333.3 nM | 0.807 | –
E13 [8], 1000 nM | 0.71 | –
E13 [8], 3000 nM | 0.892 | –
E21 [2], 4.1 nM | – | 1.05
E21 [2], 12.3 nM | – | 1.01
E21 [2], 37 nM | – | 0.998
E21 [2], 111.1 nM | – | 1.03
E21 [2], 333.3 nM | – | 1
E21 [2], 1000 nM | – | 0.876
E21 [2], 3000 nM | – | 0.887
E21 [9], 4.1 nM | 0.639 | –
E21 [9], 12.3 nM | 0.48 | –
E21 [9], 37 nM | 0.312 | –
E21 [9], 111.1 nM | 0.6 | –
E21 [9], 333.3 nM | 0.27 | –
E21 [9], 1000 nM | 0.663 | –
E21 [9], 3000 nM | 1.33 | –
E28 [3], 4.1 nM | – | 1.06
E28 [3], 12.3 nM | – | 1.11
E28 [3], 37 nM | – | 1.05
E28 [3], 111.1 nM | – | 1.13
E28 [3], 333.3 nM | – | 1.03
E28 [3], 1000 nM | – | 1.02
E28 [3], 3000 nM | – | 0.843
E28 [10], 4.1 nM | 0.718 | –
E28 [10], 12.3 nM | 0.644 | –
E28 [10], 37 nM | 0.417 | –
E28 [10], 111.1 nM | 0.495 | –
E28 [10], 333.3 nM | 0.688 | –
E28 [10], 1000 nM | 0.954 | –
E28 [10], 3000 nM | 0.695 | –
E31 [4], 4.1 nM | – | 0.857
E31 [4], 12.3 nM | – | 0.993
E31 [4], 37 nM | – | 1.08
E31 [4], 111.1 nM | – | 1.11
E31 [4], 333.3 nM | – | 0.972
E31 [4], 1000 nM | – | 1.02
E31 [4], 3000 nM | – | 0.969
E31 [11], 4.1 nM | 0.731 | –
E31 [11], 12.3 nM | 0.483 | –
E31 [11], 37 nM | 0.639 | –
E31 [11], 111.1 nM | 0.611 | –
E31 [11], 333.3 nM | 0.715 | –
E31 [11], 1000 nM | 0.918 | –
E31 [11], 3000 nM | 1.46 | –
E34 [5], 4.1 nM | – | 1.14
E34 [5], 12.3 nM | – | 0.871
E34 [5], 37 nM | – | 0.929
E34 [5], 111.1 nM | – | 0.959
E34 [5], 333.3 nM | – | 0.947
E34 [5], 1000 nM | – | 0.894
E34 [5], 3000 nM | – | 0.776
E34 [12], 4.1 nM | 0.558 | –
E34 [12], 12.3 nM | 0.535 | –
E34 [12], 37 nM | 0.702 | –
E34 [12], 111.1 nM | 0.614 | –
E34 [12], 333.3 nM | 0.634 | –
E34 [12], 1000 nM | 0.943 | –
E34 [12], 3000 nM | 1.08 | –
E57 [6], 4.1 nM | – | 0.962
E57 [6], 12.3 nM | – | 0.998
E57 [6], 37 nM | – | 0.997
E57 [6], 111.1 nM | – | 1.04
E57 [6], 333.3 nM | – | 0.973
E57 [6], 1000 nM | – | 0.922
E57 [6], 3000 nM | – | 0.988
E57 [13], 4.1 nM | 0.709 | –
E57 [13], 12.3 nM | 0.457 | –
E57 [13], 37 nM | 0.46 | –
E57 [13], 111.1 nM | 0.302 | –
E57 [13], 333.3 nM | 0.722 | –
E57 [13], 1000 nM | 0.606 | –
E57 [13], 3000 nM | 1.69 | –
FT3469 [7], 4.1 nM | – | 0.871
FT3469 [7], 12.3 nM | – | 1.12
FT3469 [7], 37 nM | – | 0.948
FT3469 [7], 111.1 nM | – | 1.08
FT3469 [7], 333.3 nM | – | 1.01
FT3469 [7], 1000 nM | – | 0.829
FT3469 [7], 3000 nM | – | 0.787
FT3469 [14], 4.1 nM | 1.14 | –
FT3469 [14], 12.3 nM | 1.57 | –
FT3469 [14], 37 nM | 0.375 | –
FT3469 [14], 111.1 nM | 0.556 | –
FT3469 [14], 333.3 nM | 0.563 | –
FT3469 [14], 1000 nM | 0.69 | –
FT3469 [14], 3000 nM | 1.37 | –
